The record followed here is patent US20260174878A1, “IRAK4 DEGRADATION AGENT AND USE THEREOF” (LEADINGTAC PHARMACEUTICAL (SHAOXING) CO., LTD., priority 2022, published 2026).

As a reminder, the IC50 is the concentration at which inhibition is half-maximal. Higher therefore signals weaker potency in that assay. By DC50 is commonly meant the concentration giving 50% degradation. Low readings indicate degradation at low concentration, high ones degradation only at high concentration. By Dmax is commonly meant the greatest extent of degradation seen.

Molecules are shown by their SMILES.

For the first experiment, the target named is T1, IRAK4 kinase (Homo sapiens, UniProt Q9NWZ3).
T1 construct: purchased Carna
T1 sequence (Q9NWZ3 1-460): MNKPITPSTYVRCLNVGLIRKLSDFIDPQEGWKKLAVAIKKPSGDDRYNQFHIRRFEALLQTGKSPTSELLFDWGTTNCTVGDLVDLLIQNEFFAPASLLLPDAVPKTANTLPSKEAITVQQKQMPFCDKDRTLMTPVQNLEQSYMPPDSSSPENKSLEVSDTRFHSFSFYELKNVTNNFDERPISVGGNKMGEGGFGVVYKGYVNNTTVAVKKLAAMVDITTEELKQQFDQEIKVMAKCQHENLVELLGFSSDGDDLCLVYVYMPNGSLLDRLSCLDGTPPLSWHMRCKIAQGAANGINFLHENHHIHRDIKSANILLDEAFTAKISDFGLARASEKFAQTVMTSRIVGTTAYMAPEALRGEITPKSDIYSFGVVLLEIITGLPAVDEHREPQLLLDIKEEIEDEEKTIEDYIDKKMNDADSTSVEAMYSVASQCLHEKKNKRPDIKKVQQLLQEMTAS
In words: IRAK4 kinase activity test (KinEASE-STK S1 HTRF kit). Type of experiment: biochemical. Conditions: IRAK4 kinase 2.5 nM, 7 μM adenosine triphosphate, 37° C. 120 min. On the procedure:
Then 2.5 nM IRAK4 kinase (Carna), 1 μM biotinylated polypeptide substrate (Cisbio), and 7 μM adenosine triphosphate (Sigma-Aldrich) were sequentially added, and the mixtures were incubated at 37° C. for 120 min. Subsequently, an anti-phosphoserine/threonine antibody (Cisbio) conjugated with a europium element compound and streptavidin conjugated with a modified XL665 (Cisbio) were added to the reaction system to stop the reaction. After 1 h of incubation at room temperature, the fluorescence intensity of each well was measured at the excitation wavelength of 337 nm and the emission wavelengths of 620 nm and 665 nm with a microplate reader EnVision (PerkinElmer) in the HTRF mode, and Ratio values were calculated using the formula: Ratio=(665 nm/620 nm)×10^4. The inhibition rates of the compounds at each concentration were calculated by comparison with the fluorescence intensity ratio of the control group. Then non-linear curve fittings for logarithmic concentration-inhibition rate were performed using GraphPad Prism 7, and the IC50 values of the compounds were obtained.
In turn, `O=C1CCN(c2cc(C(=O)N3CCC4(CCN(C[C@H]5CC[C@H](n6cc(NC(=O)c7cnn8ccc(N9CCOCC9)nc78)c(C(F)F)n6)CC5)CC4)CC3)ccc2Cl)C(=O)N1` [Example 8, N-(1-((1R,4R)-4-((9-(4-chloro-3-(2,4-dioxotetrahydropyrimidin-1(2H)-yl)benzoyl)-3,9-diazaspiro [5.5]undecan-3-yl)methyl)cyclohexyl)-3-(difluoromethyl)-1H-pyrazol-4-yl)-5-morpholinopyrazolo[1,5-a]pyrimidine-3-carboxamide] displayed an IC50 of 17 nM.

For another experiment, the target named is T2, IRAK4 protein in normal human PBMCs (Homo sapiens, UniProt Q9NWZ3).
T2 construct: host or cells: normal human PBMCs
T2 sequence (Q9NWZ3 1-460): T1 sequence (Q9NWZ3 1-460)
In words: Degradation of IRAK4 protein in normal human PBMCs (AlphaLISA). The experiment is classed as cell-based. Conditions: 24 h incubation. The procedure: The cryopreserved normal human PBMCs (Milestone, PB010C) were thawed and resuspended in RPMI 1640 medium (Gibco, A1049101) supplemented with 10% fetal bovine serum (Gibco, 10099141), 100 U/mL penicillin, and 100 µg/mL streptomycin (Gibco, 15140122). After 0.95 mL of cells were plated in each well of a 24-well cell culture plate, 50 µL of diluted compound solution was added to corresponding wells with cells, such that the final concentration of the compound fell within the range of 0.01-3000 nM. The final concentration of DMSO was 0.25%. After the compound-treated cell plate was incubated in an incubator at 37° C. with 5% CO2 for 24 h, the cells were collected into 1.5 mL centrifuge tubes and centrifuged at 1000 rpm at 4° C. for 5 min. The cell pellets were washed twice with 1×DPBS. The resuspended cells were lysed with 100 μL of lysis buffer, left to stand on ice for 30 min, and then centrifuged at 14000 g at 4° C. for 10 min. The samples of the cell lysate supernatant after centrifugation were cryopreserved at −80° C. before testing. The cell lysis buffer was a Western and IP cell lysis buffer (Beyotime, P0013) supplemented with 1 mM phenylmethylsulfonyl fluoride and a protease inhibitor cocktail (Beyotime, P1008).
The total protein concentrations of the cell lysate samples were determined using a BCA protein quantification kit (Tiangen, PA115-02).
The prepared PBMC lysate samples were assayed for IRAK4 concentrations using a human IRAK4 AlphaLISA assay kit (PerkinElmer, AL3117C) to determine the degradation effects of the compounds on IRAK4. The method is as follows:
5 μL of each of IRAK4 standard solutions with different concentrations and test samples of cell lysate supernatant were added to a white 384-well plate (PerkinElmer, 6007299), and then 10 μL of 5× anti-IRAK4 […] beads was added to each well (final concentration of 10 μg/mL). The plate was incubated at room temperature for 30 min. Then 10 μL of 5× biotin-labeled anti-IRAK4 antibody was added to each well (final concentration of 1 nM), and the plate was incubated at room temperature for another 60 min. Finally, 25 μL of 2× streptavidin-labeled donor beads was added to each well (final concentration of 40 μg/mL), and the plate was incubated at room temperature for another 30 min. After the incubation was completed, AlphaLISA signal values were measured on a microplate reader EnVision (PerkinElmer, 2105) in the AlphaScreen standard mode. A standard curve was plotted from the AlphaLISA signal values of the IRAK4 standard solutions with different concentrations, and the IRAK4 concentration of each cell lysate supernatant was determined according to the corresponding concentrations on the standard curve for the AlphaLISA signal values of the test samples and by performing corresponding correction on the total protein concentration of each sample obtained by BCA quantification. The degradation rates for the compounds at each concentration were calculated by comparing the IRAK4 concentration with that of the control group. Then non-linear curve fittings for logarithmic concentration-inhibition rate were performed using GraphPad Prism 8, and the DC50 and Dmax values of the compound were obtained.
(In Alpha technology, singlet oxygen from a donor bead excites a nearby acceptor bead.)
In the case of `O=C1CCN(c2cc(C(=O)N3CCC4(CCN(C[C@H]5CC[C@H](n6cc(NC(=O)c7cnn8ccc(N9CCOCC9)nc78)c(C(F)F)n6)CC5)CC4)CC3)ccc2Cl)C(=O)N1` [Example 8, N-(1-((1R,4R)-4-((9-(4-chloro-3-(2,4-dioxotetrahydropyrimidin-1(2H)-yl)benzoyl)-3,9-diazaspiro [5.5]undecan-3-yl)methyl)cyclohexyl)-3-(difluoromethyl)-1H-pyrazol-4-yl)-5-morpholinopyrazolo[1,5-a]pyrimidine-3-carboxamide], the DC50 amounted to 0.8 nM and the Dmax came out at 99.1%.
The corresponding values for `Cc1ccc(C(=O)N2CCC3(CCC(CN4CCC(n5cc(NC(=O)c6cnn7ccc(N8CCS(=O)(=O)CC8)nc67)c(C(F)F)n5)CC4)CC3)CC2)cc1N1CCC(=O)NC1=O` [Example 22, N-(3-(difluoromethyl)-1-(1-((3-(3-(2,4-dioxotetrahydropyrimidin-1(2H)-yl)-4-methylbenzoyl)-3-azaspiro[5.5]undecan-9-yl)methyl)piperidin-4-yl)-1H-pyrazol-4-yl)-5-(1,1-dioxothiomorpholinyl)pyrazolo[1,5-a]pyrimidine-3-carboxamide] are 0.53 nM and 98.1%.
The corresponding values for `Cc1ccc(C(=O)N2CCC3(CCC(CN4CCC(n5cc(NC(=O)c6cnn7ccc(N8CCC[C@H](N)C8)nc67)c(C(F)F)n5)CC4)CC3)CC2)cc1N1CCC(=O)NC1=O` [Example 23, (S)-5-(3-aminopiperidin-1-yl)-N-(3-(difluoromethyl)-1-(1-((3-(3-(2,4-dioxotetrahydropyrimidin-1(2H)-yl)-4-methylbenzoyl)-3-azaspiro[5.5]undecan-9-yl)methyl)piperidin-4-yl)-1H-pyrazol-4-yl)pyrazolo[1,5-a]pyrimidine-3-carboxamide] are 2.17 nM and 99%.
For the molecule `Cc1ccc(C(=O)N2CCC3(CCC(CN4CCC(n5cc(NC(=O)c6cnn7ccc(N8CC9(COC9)C8)nc67)c(C(F)F)n5)CC4)CC3)CC2)cc1N1CCC(=O)NC1=O` [Example 24, N-(3-(difluoromethyl)-1-(1-((3-(3-(2,4-dioxotetrahydropyrimidin-1(2H)-yl)-4-methylbenzoyl)-3-azaspiro[5.5]undecan-9-yl)methyl)piperidin-4-yl)-1H-pyrazol-4-yl)-5-(2-oxa-6-azaspiro[3.3]heptan-6-yl)pyrazolo[1,5-a]pyrimidine-3-carboxamide], the DC50 turned out to be 0.48 nM and the Dmax is 96.2%.
In the case of `Cc1ccc(C(=O)N2CCC3(CCC(CN4CCC(n5cc(NC(=O)c6cnn7ccc(N8CCC[C@H](O)C8)nc67)c(C(F)F)n5)CC4)CC3)CC2)cc1N1CCC(=O)NC1=O` [Example 25, (S)—N-(3-(difluoromethyl)-1-(1-((3-(3-(2,4-dioxotetrahydropyrimidin-1(2H)-yl)-4-methylbenzoyl)-3-azaspiro[5.5]undecan-9-yl)methyl)piperidin-4-yl)-1H-pyrazol-4-yl)-5-(3-hydroxypiperidin-1-yl)pyrazolo [1,5-a]pyrimidine-3-carboxamide], the DC50 was 0.32 nM and the Dmax was 97.5%.
As for `O=C1CCN(c2cc(C(=O)N3CCC4(CCC(CN5CCC(n6cc(NC(=O)c7cnn8ccc(N9CCC[C@H](O)C9)nc78)c(C(F)F)n6)CC5)CC4)CC3)ccc2Cl)C(=O)N1` [Example 26, (S)—N-(1-(1-((3-(4-chloro-3-(2,4-dioxotetrahydropyrimidin-1(2H)-yl)benzoyl)-3-azaspiro[5.5]undecan-9-yl)methyl)piperidin-4-yl)-3-(difluoromethyl)-1H-pyrazol-4-yl)-5-(3-hydroxypiperidin-1-yl)pyrazolo[1,5-a]pyrimidine-3-carboxamide], the DC50 was determined as 0.35 nM and the Dmax is 97.8%.
Take `COc1ccc(C(=O)N2CCC3(CCN(CCCN4CCC(n5cc(NC(=O)c6cnn7ccc(N8CCOCC8)nc67)c(C(F)F)n5)CC4)CC3)CC2)cc1N1CCC(=O)NC1=O` [Example 28, N-(3-(difluoromethyl)-1-(1-(3-(9-(3-(2,4-dioxotetrahydropyrimidin-1(2H)-yl)-4-methoxybenzoyl)-3,9-diazaspiro[5.5]undecan-3-yl)propyl)piperidin-4-yl)-1H-pyrazol-4-yl)-5-morpholinopyrazolo[1,5-a]pyrimidine-3-carboxamide]: the DC50 was 4.73 nM and the Dmax is 107%.
As for `O=C1CCN(c2cc(C(=O)N3CCC4(CCC(CN5CCC(n6cc(NC(=O)c7cnn8ccc(N9CCS(=O)(=O)CC9)nc78)c(C(F)F)n6)CC5)CC4)CC3)ccc2Cl)C(=O)N1` [Example 29, N-(1-(1-((3-(4-chloro-3-(2,4-dioxotetrahydropyrimidin-1(2H)-yl)benzoyl)-3-azaspiro[5.5]undecan-9-yl)methyl)piperidin-4-yl)-3-(difluoromethyl)-1H-pyrazol-4-yl)-5-(1,1-dioxothiomorpholinyl) pyrazolo[1,5-a]pyrimidine-3-carboxamide], half-maximal degradation (DC50) was put at 0.53 nM and the Dmax turned out to be 98.2%.
Taken in the same sequence, the figures for `N[C@H]1CCCN(c2ccn3ncc(C(=O)Nc4cn(C5CCN(CC6CCC7(CC6)CCN(C(=O)c6ccc(Cl)c(N8CCC(=O)NC8=O)c6)CC7)CC5)nc4C(F)F)c3n2)C1` [Example 30, (S)-5-(3-aminopiperidin-1-yl)-N-(1-(1-((3-(4-chloro-3-(2,4-dioxotetrahydropyrimidin-1(2H)-yl)benzoyl)-3-azaspiro[5.5]undecan-9-yl)methyl)piperidin-4-yl)-3-(difluoromethyl)-1H-pyrazol-4-yl)pyrazolo [1,5-a]pyrimidine-3-carboxamide] were 1 nM and 100%.
The corresponding values for `O=C1CCN(c2cc(C(=O)N3CCC(OCCCN4CCC(n5cc(NC(=O)c6cnn7ccc(N8C[C@H]9C[C@@H]8CO9)nc67)c(C(F)F)n5)CC4)CC3)ccc2Cl)C(=O)N1` [Example 31, 5-((1R,4R)-2-oxa-5-azabicyclo[2.2.1]heptan-5-yl)-N-(1-(1-(3-((1-(4-chloro-3-(2,4-dioxotetrahydropyrimidin-1(2H)-yl)benzoyl)piperidin-4-yl)oxy)propyl)piperidin-4-yl)-3-(difluoromethyl)-1H-pyrazol-4-yl)pyrazolo[1,5-a]pyrimidine-3-carboxamide] are 0.84 nM and 99.2%.
